Laboratory results reported in ChEMBL document CHEMBL1926511, “Novel amino-piperidines as potent antibacterials targeting bacterial type IIA topoisomerases” (Bioorg Med Chem Lett, 2011).
Values after ≈ are worked out from the molar mass of the structure shown. Blank lines part the entries; values can stand above or below the compound they belong to. Active and inactive are the calls of the source. The rule behind the calls is not given here.

Tests used:
Haemophilus influenzae = assay: Antibacterial activity against Haemophilus influenzae H128 after 18 to 24 hrs by broth microdilution method; type: functional
[1] = Distribution coefficient, log D of the compound at pH 7.4; type: physicochemical; details: octanol/water
[2] = Inhibition of Escherichia coli DNA gyrase-dependent DNA replication by scintillation proximity assay
Streptococcus pneumoniae [3] = assay: Antibacterial activity against Streptococcus pneumoniae 1629 after 18 to 24 hrs by broth microdilution method; type: functional
Staphylococcus aureus = assay: Antibacterial activity against Staphylococcus aureus WCUH 29 after 18 to 24 hrs by broth microdilution method; type: functional
[4] = biological target: T1, Voltage-gated inwardly rectifying potassium channel KCNH2 (Homo sapiens, UniProt Q12809); assay: Inhibition of human ERG expressed in HEK293 cells by patch-clamp electrophysiology; type: cell-based
T1 sequence (Q12809 whole entry): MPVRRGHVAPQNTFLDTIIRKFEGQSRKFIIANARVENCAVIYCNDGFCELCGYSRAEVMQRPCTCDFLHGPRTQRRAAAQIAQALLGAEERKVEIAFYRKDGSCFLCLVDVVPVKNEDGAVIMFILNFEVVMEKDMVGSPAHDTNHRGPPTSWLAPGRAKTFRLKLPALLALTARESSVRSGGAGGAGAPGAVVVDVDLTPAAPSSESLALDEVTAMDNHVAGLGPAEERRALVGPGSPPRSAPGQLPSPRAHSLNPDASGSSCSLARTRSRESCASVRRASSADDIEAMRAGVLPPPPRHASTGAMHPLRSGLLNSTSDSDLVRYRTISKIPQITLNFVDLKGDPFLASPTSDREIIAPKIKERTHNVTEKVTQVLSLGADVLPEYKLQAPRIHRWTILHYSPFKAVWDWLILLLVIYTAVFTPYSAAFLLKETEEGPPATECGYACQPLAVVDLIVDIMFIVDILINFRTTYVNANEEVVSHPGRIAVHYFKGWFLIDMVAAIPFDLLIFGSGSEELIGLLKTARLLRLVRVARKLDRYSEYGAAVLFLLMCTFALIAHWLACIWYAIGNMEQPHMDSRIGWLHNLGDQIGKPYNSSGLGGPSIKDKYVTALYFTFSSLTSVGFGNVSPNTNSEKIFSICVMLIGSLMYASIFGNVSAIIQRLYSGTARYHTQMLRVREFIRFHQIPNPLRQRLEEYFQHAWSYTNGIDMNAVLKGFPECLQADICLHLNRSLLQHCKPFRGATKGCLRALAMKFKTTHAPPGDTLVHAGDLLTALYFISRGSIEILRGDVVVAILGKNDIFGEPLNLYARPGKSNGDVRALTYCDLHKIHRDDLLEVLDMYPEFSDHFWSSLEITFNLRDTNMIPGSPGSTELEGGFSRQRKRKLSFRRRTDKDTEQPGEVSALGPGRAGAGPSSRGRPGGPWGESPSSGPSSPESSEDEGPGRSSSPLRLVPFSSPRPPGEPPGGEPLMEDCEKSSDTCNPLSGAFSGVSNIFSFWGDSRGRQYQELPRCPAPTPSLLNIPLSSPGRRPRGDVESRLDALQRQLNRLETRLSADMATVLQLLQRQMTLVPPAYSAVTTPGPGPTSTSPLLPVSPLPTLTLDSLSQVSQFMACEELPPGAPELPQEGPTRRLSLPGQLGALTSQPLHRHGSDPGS

[5] = Inhibition of Haemophilus influenzae DNA gyrase-dependent DNA replication by scintillation proximity assay
[6] = biological target: T1, Voltage-gated inwardly rectifying potassium channel KCNH2; assay: Displacement of [3H]dofetilide from human ERG by liquid scintillation counting
Streptococcus pneumoniae [7] = assay: Antibacterial activity against Streptococcus pneumoniae 1629 infected in rat respiratory tract infection model assessed as complete eradication of bacterial burden at 50 mg/kg, po after 31 hrs post infection; type: functional, organism-based; set-up: dose 50 mg/kg
Streptococcus pneumoniae [8] = assay: Antibacterial activity against Streptococcus pneumoniae 1629 infected in rat respiratory tract infection model assessed as log reduction in bacterial burden at 50 mg/kg, po after 1 hr post infection relative to non-treated control; type: functional
Streptococcus pneumoniae [9] = assay: Antibacterial activity against Streptococcus pneumoniae 1629 infected in rat respiratory tract infection model assessed as log reduction in bacterial burden at 50 mg/kg, po after 48 hrs post infection relative to non-treated control; type: functional
[10] = Blood clearance in cynomolgus monkey at 3.1 mg/kg, iv; type: ADME, organism-based, Macaca fascicularis; set-up: dose 3.1 mg/kg, route intravenous; details: whole blood
[11] = Volume of distribution at steady state in Sprague-Dawley rat at 3.5 mg/kg, iv; type: ADME, organism-based; set-up: dose 3.5 mg/kg, route intravenous; details: in vivo, read-out: Vdss
Rattus norvegicus = species: Rattus norvegicus; assay: Hepatic blood flow in Sprague-Dawley rat; type: ADME, organism-based, Liver
[12] = Oral bioavailability in Beagle dog at 4 mg/kg; type: ADME, organism-based, Canis lupus familiaris; details: in vivo
[13] = Mean residence time in Sprague-Dawley rat at 3.5 mg/kg, iv; type: ADME, organism-based; set-up: dose 3.5 mg/kg, route intravenous; details: in vivo
[14] = Half life in Sprague-Dawley rat at 3.5 mg/kg, iv; type: ADME, organism-based; set-up: dose 3.5 mg/kg, route intravenous; details: in vivo
[15] = Half life in Beagle dog at 3.5 mg/kg, iv; type: ADME, organism-based, Canis lupus familiaris; set-up: dose 3.5 mg/kg, route intravenous; details: in vivo
[16] = Plasma protein binding in human; type: ADME, cell-free; details: read-out: PPB (converted)
[17] = Oral bioavailability in Sprague-Dawley rat at 5.6 mg/kg; type: ADME, organism-based; details: in vivo
[18] = Plasma protein binding in cynomolgus monkey; type: ADME, cell-free, Macaca fascicularis; details: read-out: PPB (converted)
[19] = Oral bioavailability in cynomolgus monkey at 5.2 mg/kg; type: ADME, organism-based, Macaca fascicularis; details: in vivo
[20] = Mean residence time in cynomolgus monkey at 3.1 mg/kg, iv; type: ADME, organism-based, Macaca fascicularis; set-up: dose 3.1 mg/kg, route intravenous; details: in vivo
[21] = AUC in cynomolgus monkey at 5.2 mg/kg, po; type: ADME, organism-based, Macaca fascicularis; set-up: dose 5.2 mg/kg, route oral; details: plasma
[22] = Half life in cynomolgus monkey at 3.1 mg/kg, iv; type: ADME, organism-based, Macaca fascicularis; set-up: dose 3.1 mg/kg, route intravenous; details: in vivo
[23] = Volume of distribution at steady state in Beagle dog at 3.5 mg/kg, iv; type: ADME, organism-based, Canis lupus familiaris; set-up: dose 3.5 mg/kg, route intravenous; details: in vivo, read-out: Vdss
Liver microsomes = assay: Intrinsic clearance in human liver microsomes; type: ADME, Microsome
[24] = Mean residence time in Beagle dog at 3.5 mg/kg, iv; type: ADME, organism-based, Canis lupus familiaris; set-up: dose 3.5 mg/kg, route intravenous; details: in vivo
Cynomolgus monkey = assay: Hepatic blood flow in cynomolgus monkey; type: ADME, organism-based, Macaca fascicularis, Liver
[25] = Plasma protein binding in rat; type: ADME, cell-free; details: read-out: PPB (converted)
[26] = Blood clearance in Sprague-Dawley rat at 3.5 mg/kg, iv; type: ADME, organism-based; set-up: dose 3.5 mg/kg, route intravenous; details: whole blood
[27] = Intrinsic clearance in cynomolgus monkey liver microsomes; type: ADME, Macaca fascicularis, Microsome
[28] = AUC in Beagle dog at 4 mg/kg, po; type: ADME, organism-based, Canis lupus familiaris; set-up: dose 4 mg/kg, route oral; details: plasma
[29] = Volume of distribution at steady state in cynomolgus monkey at 3.1 mg/kg, iv; type: ADME, organism-based, Macaca fascicularis; set-up: dose 3.1 mg/kg, route intravenous; details: in vivo, read-out: Vdss
[30] = Blood clearance in Beagle dog at 3.5 mg/kg, iv; type: ADME, organism-based, Canis lupus familiaris; set-up: dose 3.5 mg/kg, route intravenous; details: whole blood
[31] = AUC in Sprague-Dawley rat at 5.6 mg/kg, po; type: ADME, organism-based; set-up: dose 5.6 mg/kg, route oral; details: plasma
Liver = assay: Intrinsic clearance in dog liver microsomes; type: ADME, Canis lupus familiaris, Microsome
Canis familiaris = species: Canis familiaris; assay: Hepatic blood flow in Beagle dog; type: ADME, organism-based, Canis lupus familiaris, Liver

Compound: COc1ccc2ncc(F)c(CCN3CCC(NCc4cc5c(cn4)OCCO5)CC3)c2c1
- MIC (Haemophilus influenzae): 0.25 mg/L (≈ 0.552 µM)
- logD [1]: 2.03
- IC50 [4]: 6 µM
- IC50 [5]: 0.031 mg/L (≈ 0.0685 µM)
- IC50 [6]: 5 µM
- MIC (Streptococcus pneumoniae [3]): 0.03 mg/L (≈ 0.0663 µM)
- MIC (Staphylococcus aureus): 0.01 mg/L (≈ 0.0221 µM)

Compound: COc1ccc2ncc(F)c(CCN3CC[C@H](NCc4cc5c(cn4)OCCO5)[C@H](O)C3)c2n1
- Activity (Streptococcus pneumoniae [7]): Active
- MIC (Haemophilus influenzae): 0.5 mg/L (≈ 1.06 µM)
- logD [1]: 1.52
- IC50 [5]: 0.072 mg/L (≈ 0.153 µM)
- log10cfu (Streptococcus pneumoniae [8]): 2
- MIC (Streptococcus pneumoniae [3]): 0.06 mg/L (≈ 0.128 µM)
- MIC (Staphylococcus aureus): 0.03 mg/L (≈ 0.0639 µM)
- log10cfu (Streptococcus pneumoniae [9]): >=4

Compound: COc1ccc2ncc(C#N)c(CCN3CCC(NCc4cc5c(cn4)OCS5)CC3)c2c1
- MIC (Haemophilus influenzae): 0.25 mg/L (≈ 0.542 µM)
- logD [1]: 2.32
- IC50 [4]: 2 µM
- IC50 [5]: 0.06 mg/L (≈ 0.13 µM)
- IC50 [6]: 0.5 µM
- MIC (Streptococcus pneumoniae [3]): 0.01 mg/L (≈ 0.0217 µM)
- MIC (Staphylococcus aureus): 0.01 mg/L (≈ 0.0217 µM)

Compound: COc1ccc2ncc(F)c(CCN3CC[C@@H](NCc4cc5c(cn4)OCCO5)[C@H](O)C3)c2n1
- MIC (Haemophilus influenzae): 0.5 mg/L (≈ 1.06 µM)
- logD [1]: 2.16
- IC50 [5]: 0.058 mg/L (≈ 0.124 µM)
- MIC (Streptococcus pneumoniae [3]): 0.03 mg/L (≈ 0.0639 µM)
- MIC (Staphylococcus aureus): 0.01 mg/L (≈ 0.0213 µM)

Compound: COc1ccc2nccc([C@@H](O)CN3CCC(NCc4cc5c(cn4)OCCO5)CC3)c2n1
- MIC (Haemophilus influenzae): 2 mg/L (≈ 4.43 µM)
- logD [1]: 0.62
- IC50 [4]: 4 µM
- IC50 [5]: 0.016 mg/L (≈ 0.0354 µM)
- IC50 [2]: 0.056 mg/L (≈ 0.124 µM)
- IC50 [6]: 25.1 µM
- MIC (Streptococcus pneumoniae [3]): 0.125 mg/L (≈ 0.277 µM)
- MIC (Staphylococcus aureus): 0.06 mg/L (≈ 0.133 µM)

Compound: COc1ccc2ncc(F)c(CCN3CC[C@@H](NCc4cc5c(cn4)OCCO5)[C@@H](O)C3)c2n1
- Activity (Streptococcus pneumoniae [7]): Active
- MIC (Haemophilus influenzae): 0.5 mg/L (≈ 1.06 µM)
- logD [1]: 1.38
- IC50 [5]: 0.051 mg/L (≈ 0.109 µM)
- log10cfu (Streptococcus pneumoniae [8]): 2
- MIC (Streptococcus pneumoniae [3]): 0.06 mg/L (≈ 0.128 µM)
- MIC (Staphylococcus aureus): 0.01 mg/L (≈ 0.0213 µM)
- log10cfu (Streptococcus pneumoniae [9]): >=4

Compound: COc1ccc2ncc(F)c([C@H](O)CN3CCC(NCc4cc5c(cn4)OCCO5)CC3)c2n1
- MIC (Haemophilus influenzae): 1 mg/L (≈ 2.13 µM)
- IC50 [5]: 0.098 mg/L (≈ 0.209 µM)
- IC50 [6]: 63.1 µM
- MIC (Streptococcus pneumoniae [3]): 0.125 mg/L (≈ 0.266 µM)
- MIC (Staphylococcus aureus): 0.06 mg/L (≈ 0.128 µM)

Compound: COc1ccc2ncc(F)c([C@@H](O)CN3CCC(NCc4cc5c(cn4)OCCO5)CC3)c2n1
- Activity (Streptococcus pneumoniae [7]): Active
- clearance [10]: 0.912 L/h/kg
- Vd [11]: 9.8 L/kg
- QH (Rattus norvegicus): 100%
- bioavailability [12]: 76%
- MRT [13]: 2.5 h
- half-life [14]: 2.5 h
- MIC (Haemophilus influenzae): 0.5 mg/L (≈ 1.06 µM)
- half-life [15]: 12.4 h
- fraction unbound [16]: 0.307
- logD [1]: 0.59
- bioavailability [17]: 51%
- IC50 [4]: 5 µM
- fraction unbound [18]: 0.354
- bioavailability [19]: 12%
- IC50 [5]: 0.078 mg/L (≈ 0.166 µM)
- MRT [20]: 4.6 h
- AUC [21]: 0.72 µg·h/mL
- half-life [22]: 5.6 h
- Vd [23]: 16.5 L/kg
- CL (Liver microsomes): < 0.6 mL/min/g
- MRT [24]: 16.5 h
- IC50 [6]: 79.4 µM
- QH (Cynomolgus monkey): 35%
- log10cfu (Streptococcus pneumoniae [8]): 2
- fraction unbound [25]: 0.589
- clearance [26]: 4.03 L/h/kg
- CL [27]: 4.8 mL/min/g
- MIC (Streptococcus pneumoniae [3]): 0.06 mg/L (≈ 0.128 µM)
- AUC [28]: 2.51 µg·h/mL
- Vd [29]: 4.1 L/kg
- MIC (Staphylococcus aureus): 0.03 mg/L (≈ 0.0639 µM)
- log10cfu (Streptococcus pneumoniae [9]): >=4
- clearance [30]: 1 L/h/kg
- AUC [31]: 0.72 µg·h/mL
- CL (Liver): 0.7 mL/min/g
- QH (Canis familiaris): 35%

Compound: COc1ccc2ncc(F)c(CCN3CC[C@H](NCc4cc5c(cn4)OCCO5)[C@@H](O)C3)c2n1
- MIC (Haemophilus influenzae): 0.5 mg/L (≈ 1.06 µM)
- logD [1]: 2.1
- IC50 [5]: 0.058 mg/L (≈ 0.124 µM)
- MIC (Streptococcus pneumoniae [3]): 0.03 mg/L (≈ 0.0639 µM)
- MIC (Staphylococcus aureus): 0.01 mg/L (≈ 0.0213 µM)

Continued by falling MIC (Haemophilus influenzae), values first:

- MIC (Haemophilus influenzae): 0.5 mg/L (≈ 1.11 µM)
- logD [1]: 0.87
- IC50 [2]: 0.008 mg/L (≈ 0.0178 µM)
- MIC (Streptococcus pneumoniae [3]): 0.125 mg/L (≈ 0.278 µM)
- MIC (Staphylococcus aureus): 0.125 mg/L (≈ 0.278 µM)
Compound: COc1ccc2nccc([C@@H](O)CN3CCC(NCc4ccc5c(c4)OCCO5)CC3)c2c1

- MIC (Haemophilus influenzae): 0.5 mg/L (≈ 1.09 µM)
- logD [1]: 1.48
- IC50 [5]: 0.144 mg/L (≈ 0.313 µM)
- MIC (Streptococcus pneumoniae [3]): 0.03 mg/L (≈ 0.0651 µM)
- MIC (Staphylococcus aureus): 0.01 mg/L (≈ 0.0217 µM)
Compound: COc1ccc2ncc(C#N)c(CCN3CCC(NCc4cc5c(cn4)OCCO5)CC3)c2n1

- MIC (Haemophilus influenzae): 0.25 mg/L (≈ 0.532 µM)
- logD [1]: 2.4
- IC50 [5]: 0.027 mg/L (≈ 0.0575 µM)
- MIC (Streptococcus pneumoniae [3]): 0.01 mg/L (≈ 0.0213 µM)
- MIC (Staphylococcus aureus): 0.01 mg/L (≈ 0.0213 µM)
Compound: COc1ccc2ncc(Cl)c(CCN3CCC(NCc4cc5c(cn4)OCCO5)CC3)c2n1
- Activity (Streptococcus pneumoniae [7]): Active
- IC50 [4]: 2 µM
- IC50 [6]: 2 µM
- log10cfu (Streptococcus pneumoniae [8]): 2
- log10cfu (Streptococcus pneumoniae [9]): >=4

- MIC (Haemophilus influenzae): 0.125 mg/L (≈ 0.276 µM)
- logD [1]: 1.81
- IC50 [5]: 0.051 mg/L (≈ 0.112 µM)
- MIC (Streptococcus pneumoniae [3]): 0.01 mg/L (≈ 0.022 µM)
- MIC (Staphylococcus aureus): 0.01 mg/L (≈ 0.022 µM)
Compound: COc1ccc2ncc(F)c(CCN3CCC(NCc4cc5c(cn4)OCCO5)CC3)c2n1
- Activity (Streptococcus pneumoniae [7]): Active
- log10cfu (Streptococcus pneumoniae [8]): 2
- log10cfu (Streptococcus pneumoniae [9]): >=4
